The record followed here is patent US9132136B2, “Pharmaceutical combination” (HOFFMANN-LA ROCHE INC., priority 2010, dated 2015).

Molecules are shown by their SMILES. “Also recorded” adds a separate entry of the source.

Data set [1] can be described thus: Oral glucose tolerance test (oGTT) in male C57Bl6 mice. The format is in vivo, male C57BL/6J mice. The conditions noted are these: 0.3 and 1 mg/kg p.o., vs vehicle. The procedure: An oral glucose tolerance test (oGTT) was performed in C57Bl6 mice to address potential anti-diabetic effects of TAAR1 agonists. Male C57BL/6J mice (Charles River Laboratories, Lyon, France) were stratified into groups of 8 mice according to body weight. The evening before the animals received 1 g food, this corresponds to a fasting period of about 10 hours. At the experiment day the animals were treated with TAAR1 agonists or placebo (0.3% Tween 80) 45 minutes prior to an oral glucose challenge of 2 g/kg. The main readout was blood glucose measured with Accu-Chek Aviva. In parallel blood samples were taken for insulin determination.

Data set [2] concerns cocaine-induced hyperlocomotor activity in mice. Description: Cocaine-induced locomotion test in mice. It is filed as in vivo.
In data set [3] the test system is L-687414-induced hyperlocomotion in mice. Description: L-687414-induced locomotion test in mice. It is filed as in vivo.
A short description of data set [4]: 14-day treatment in rats: body weight gain, fat mass (MR relaxometry), food intake.
Description: Along with body weight measurement, magnetic resonance (MR) relaxometry was employed to determine, in a noninvasive manner, fat mass composition in the animals.
For a further data set, the target named is T1, mouse TAAR1 (Mus musculus, UniProt Q923Y8).
T1 construct: expressed in transfected cells
Description: In vitro functional activity (cAMP assay) at mouse TAAR1 receptor in recombinant HEK293 cells. The format is cell-based. The procedure: In Vitro Functional Activity of TAAR1 Agonists at Mouse TAAR1 Receptor
Recombinant HEK293 cells expressing the mouse TAAR1 were grown at 37° C. and 5% CO2/95% air in 250 ml Falcon culture flasks in 30 ml culture medium. The cell culture medium contained DMEM high glucose, fetal calf serum (10%, heat inactivated for 30 min at 56° C.), geneticin G418 (500 μg/ml), and penicillin/streptomycin (1%). Cells were harvested when 80-90% confluent. Then culture medium was then removed from the culture flasks, cells washed once with 5 ml of PBS. After removing the wash solution, 5 ml of trypsin/EDTA solution were added for 5 min at 37° C. Afterwards, 45 ml of culture medium was added to the 5 ml detached cell solution and the total 50 ml transferred into a 50 ml Falcon tube (ref: 2070), the tube was centrifuged at 1300 rpm for 3 min at RT and the culture medium removed. The cell pellet was resuspended in fresh culture medium and brought to 5×10 E5 cells per milliliter. Then the cells were plated in 96-well Plate (BIOCOAT 6640 from Becton Dickinson) with a multipipette (100 μl/well, 50 000 cells/well) and incubated 20 h at 37° C.
The cell culture medium was removed and the cells washed once with PBS. 50 μl of PBS (AMIMED Endotoxine free: 8-05F00-1) with 1 mM IBMX were added and the cells allowed to incubate for 30 min at 37° C. and 5% CO2/95% air. Then 50 μl of a (e.g.) 20 μM compound solution or 50 μl of a 50% beta-PEA stimulation concentration in PBS (AMIMED Endotoxine free) with 1 mM IBMX were added and the cells incubated for 30 min at 37° C. as above again. After the incubation the cells were lysed with 50 μl of the 3× Detection Mix solution containing Ru-cAMP, Alexa700-cAMP Ab and lysis buffer for at least 60 min (better 2 h) at RT under strong shaking. The fluorescence is measured on the NanoScan (10M reader) (Ex. 456 nm, Em. 630 & 700 nm).
Efficacy values (% eff.) are relative to phenylethylamine having 100% agonistic activity.
On the technique in general: Changes in cAMP serve as a functional read-out for many G protein-coupled receptors.

Where [5] appears, read: 14 days, 1 mg/kg p.o., vs vehicle.
Setting [6] is: 14 days, 3 and 10 mg/kg p.o., vs vehicle.

T1 sequence (Q923Y8 whole entry): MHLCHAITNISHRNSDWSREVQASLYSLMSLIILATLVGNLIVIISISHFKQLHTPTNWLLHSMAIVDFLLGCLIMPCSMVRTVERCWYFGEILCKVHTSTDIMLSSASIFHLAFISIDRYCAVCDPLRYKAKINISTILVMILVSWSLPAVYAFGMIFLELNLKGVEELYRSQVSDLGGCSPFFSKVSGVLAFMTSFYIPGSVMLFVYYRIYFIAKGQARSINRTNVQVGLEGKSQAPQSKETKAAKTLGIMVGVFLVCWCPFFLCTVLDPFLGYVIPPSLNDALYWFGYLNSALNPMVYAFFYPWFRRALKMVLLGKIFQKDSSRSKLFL

For `Cc1c(F)cccc1[C@H]1COC(N)=N1` [Example S2, (S)-4-(3-fluoro-2-methyl-phenyl)-4,5-dihydro-oxazol-2-ylamine], the “glucose AUC (0-60 min) during oGTT” value in data set [1] is reported as “markedly lowered”. Besides, the “insulin AUC (0-60 min) during oGTT” value in data set [1] is given as “markedly lowered”. Besides, the cocaine-induced hyperlocomotor activity entry in data set [2] (1 and 3 mg/kg p.o.) is “significantly antagonized”; in data set [2] (tested alone, 0.3 mg/kg p.o., 0.3 mg/kg), “partially active; also recorded: partially antagonized”. Moreover, in data set [2] (doses that antagonized cocaine (1 and 3 mg/kg p.o.)), the “effects on baseline locomotor activity” value is listed as “modest effects”. The L-687414-induced hyperlocomotion result in data set [3] (acute, 0.00003-1 mg/kg p.o.) was “dose-dependently antagonized; also recorded: fully antagonized”. Further, the L-687414-induced locomotor activity entry in data set [3] (alone, 0.001 mg/kg p.o.) is recorded as “partially active”. The results for the fat mass result in data set [4] (setting [5]) and in data set [4] (setting [6]) were “No significant effect” and “reduced”, respectively. Also, the food intake entry in data set [4] (setting [5]) was “No significant effect”; in data set [4] (14 days, 10 mg/kg), “significant reduction”; in data set [4] (setting [6]), “reduced”. In addition, the weight gain result in data set [4] (14 days, 1 mg/kg p.o., vs vehicle, 1 mg/kg) is “No significant effect and not”; in data set [4] (setting [6]), “reduced”. The “weight loss compared to pre-treatment values” in data set [4] (14 days, 3 and 10 mg/kg p.o.) is given as “without inducing weight loss”. Besides, the “Cumulative food intake ± SEM” value in data set [4] (Study 1, 3 mg/kg) is 233.8 ± 7.4 g; in data set [4] (Study 1, 10 mg/kg), 217.0 ± 7.3 g; in data set [4] (Study 2, 1 mg/kg) it was 248.8 ± 5.0 g. For the same molecule, the Emax at mouse TAAR1 (HEK293, relative to phenylethylamine having 100% agonistic activity, read-out: % efficacy) worked out at 65%. Further, at mouse TAAR1 (HEK293 cells expressing mouse TAAR1, cAMP assay, read-out: EC50), the half-maximal effective concentration (EC50) – broadly, the concentration at which the effect is half-maximal – is 1.8 nM.
